Data: patent US20040147028A1, “Yeast treatment” (priority 2002, published 2004)
Read-outs that look alike come from different tables or passages of the source.

Key:
[1] = system: yeast protoplasts; test: Endocytosis study: yeast protoplasts incubated with dye-bound liposomes, confocal and transmission electron microscopy; assay type: cell-based, Saccharomyces cerevisiae (YNN 281); details: dye incubated alone with the formed protoplasts, unencapsulated
Protocol: An 0.8 ml aliquot of protoplast suspension was dispensed through a large orifice pipette tip (ensuring minimal disturbance of the fragile protoplast) into a sterilised eppendoff tube to which was added 0.8 ml of the liposome suspension obtained from the gel filtration. Both solutions were of equivalent densities to ensure the stability of the protoplast and gently mixed prior to incubation. The tubes were individually wrapped in foil and embedded on their side in a sheet of Styrofoam which was also wrapped in foil to ensure the tubes would remain in place and then immersed into a water bath a 37° C. for the 90 minute incubation.
A 20 ul sample of the incubated suspension was applied to a microscope slide with the edges of the cover slip sealed with an acrylic resin to inhibit drying out of the sample. The slides once made were stored in the dark to reduce the risk of a loss in fluorescence of the FITC conjugate and viewed immediately under phase contrast and fluorescence using the confocal microscope.
The technique used for preparing sections of block-mounted cells for image analysis required 0.5 ml of the protoplast-liposome suspension to be fixed with 50 ul of 1.25% (v/v) glutaraldehyde and 1.0% (w/v) paraformaldehyde in a 0.2M cacodylate buffer at pH 7.2 for 1 hour. The fixed suspension was then mixed with a similar volume of 5.0% agarose and placed at 4° C. for 20 minutes to set. […]

[2] = system: yeast protoplasts
Protocol: To ensure the competent nature of the formed protoplast to undertake endocytosis, the yeast cells were grown on a modified YEPD media in which the 2% (w/v) dextrose was replaced by 4% (w/v) sucrose as the carbon source to facilitate a mechanism for the absorption and transport of the sucrose C14 by the yeast cells. Protoplasts were formed as described above and isolated again utilising a sorbitol based density gradient. Silicon oil isolation of protoplasts is a convenient method for separating radio labelled cells from a sugar gradient solution. […] Seven micro tubes (400 ul) were prepared for pelletising the protoplasts with each containing 10 ul of Fluorinert FC 77 as a capture solution and 100 ul of Silicon Oil AR 200 (Density of 1.05 g/1) as the media to be used for the separation of sucrose C14 protoplasts. In the experiment 40 ul of a 1M sucrose (made in a 50 ml volumetric flask) was used to which was added 2 ul of the sucrose C14 stock. Then 1.2 ml of the protoplast suspension was placed into a 1.5 ml eppendoff tube and 12 ul of the 1M sucrose C14 solution was placed in the cap. The incubation time started when the cap was sealed onto the eppendoff tube. Next, 100 ul aliquots of the protoplasts were taken at 10 minute intervals and placed sequentially into a series of the prepared 400 ul tubes containing the silicon oil gradients and spun at 7000 rpm for 10 second. The tubes were removed at each time interval and cut through the upper silicon oil fraction to capture the formed protoplast pellet and resuspended in 100 ul of Milli Q water in a scintillation tube containing 3 ml of scintillation fluid. As a standard, 100 ul volumes of the 1M sucrose containing the sucrose C14 were taken for counting but not spun through the silicon oil as were the protoplasts without the isotope but these spun through the silicon oil and counted to avoid quenching correction of the protoplast extract.
A graph of time vs. counts, recorded as nmoles of absorbed sucrose was then prepared to confirm the uptake of our sucrose isotope by the competent protoplasts.
Standards were prepared and measured for background scintillation without the added isotope and 100 ul of a 1M sucrose standard continuing the isotope was measured to obtain counts for a 1 umole solution of sucrose.

Compound: fluorescein isothiocyanate dextran [formula 13]
- passive migration across the plasma membrane of protoplasts (false positive) [1]: eliminated this situation

Compound: O[14CH2]C1OC(O[C@@]2([14CH2]O)OC([14CH2]O)C(O)C2O)C(O)C(O)C1O (stereo partly drawn) [I-Sucrose 14 C, I-sucrose-ul-14C]
- I-Sucrose 14 C uptake ([2]; time 1 min): 1.87 nmol
- I-Sucrose 14 C uptake ([2]; time 10 min): 6.62 nmol
- I-Sucrose 14 C uptake ([2]; time 20 min): 13.4 nmol
- I-Sucrose 14 C uptake ([2]; time 30 min): 17.9 nmol
- I-Sucrose 14 C uptake ([2]; time 40 min): 26.6 nmol
- I-Sucrose 14 C uptake ([2]; time 50 min): 35.9 nmol
- I-Sucrose 14 C uptake ([2]; time 60 min): 56.9 nmol

Compound: O=C(O)CN(CC(=O)O)Cc1cc2c(cc1O)Oc1cc(O)c(CN(CC(=O)O)CC(=O)O)cc1C21OC(=O)c2ccccc21 [calcein]
- passive migration across the plasma membrane of protoplasts (false positive) [1]: some passive migration of this molecule across the plasma membrane
